The source of these data is paper PMC6271638, “Synthesis of New 1,2,3-Triazol-4-yl-quinazoline Nucleoside and Acyclonucleoside Analogues” (Molecules, 2014).

Data set [1] is described as follows: Cytotoxicity (50% extinction of cells) in the anti-HCV replicon assay. Format: cell-based. Conditions: human; Huh 5.2 cells; 3-day cell culture assay; read-out: CC50, concentration of compound required for 50% extinction of Huh 5.2 cells. On the technique in general: Replicon systems follow genome replication, usually without infectious particles.
In data set [2] the test system is HCV replicon (genotype 1b, CON1). In words: Anti-HCV activity, 3-day cell culture assay in HCV-replicon-containing cell line AVA5. As to conditions: AVA5 cells (genotype 1b, CON1), 3-day assay, read-out: IC50, concentration of compound achieving 50% inhibition of the replicon system. The class given is cell-based, hepatitis C virus. On the procedure:
Antiviral activity was assessed in a 3-day cell culture assay using the HCV-replicon-containing cell line, AVA5 (genotype 1b, CON1) (provided to GUMC by Apath, Inc., Brooklyn, NY, USA) as previously described.

The test system of data set [3] is Huh 5.2 cells. Briefly: Cytotoxicity (50% extinction of cells) in the anti-HCV replicon assay. As to conditions: 3-day cell culture assay, read-out: CC50, concentration of compound required for 50% extinction of Huh 5.2 cells. Format: cell-based.

Like-named read-outs stand apart in the source and are kept apart here.

On to `Cc1nc2ccccc2c(=O)n1Cc1cn(COCCO)nn1` [Compound 7e, 2-((4-((2-Methyl-4-oxoquinazolin-3-yl)methyl)-1,2,3-triazol-1-yl)methoxy)ethanol], for which the CC50 at 3 day in data set [1] was ≥ 50 µM. Moreover, in data set [2] (Hepatitis C virus, 72 h), the IC50 was > 10 µM.

`OCCCCn1cc(COc2nc(-c3ccccc3)nc3ccccc23)nn1` [Compound 7c, 4-(4-((2-Phenylquinazolin-4-yloxy)methyl)-1,2,3-triazol-1-yl)butan-1-ol]: in data set [1], the CC50 at 3 day was ≥ 50 µM. For the same molecule, the IC50 in data set [2] (Hepatitis C virus, 72 h) is > 10 µM.

As for “3-((1-(β-D-Ribofuranos-1-yl)-1,2,3-triazol-4-yl)methyl)-2-methylquinazolin-4-one [Compound 7d]”, the CC50 in data set [3] was ≥ 100 µM. Further, in data set [2], the IC50 was > 10 µM.

As for `Cc1nc2ccccc2c(=O)n1Cc1cn(CCCCO)nn1` [Compound 7f, 4-(4-((2-Methyl-4-oxoquinazolin-3-yl)methyl)-1,2,3-triazol-1-yl)butan-1-ol], the CC50 at 3 day in data set [1] is ≥ 50 µM. Besides, the IC50 in data set [2] (Hepatitis C virus, 72 h) is > 10 µM.

For “3-((1-(β-D-Ribofuranos-1-yl)-1,2,3-triazol-4-yl)methyl)quinazolin-4-one [Compound 7g]”, the CC50 in data set [3] is ≥ 100 µM. Also, the IC50 in data set [2] was > 10 µM.

Take `O=c1c2ccccc2ncn1Cc1cn(CCCCO)nn1` [Compound 7i, 4-(4-((4-Oxoquinazolin-3-yl)methyl)-1H-1,2,3-triazol-1-yl)butan-1-ol]: the CC50 at 3 day in data set [1] is ≥ 50 µM. Besides, the IC50 in data set [2] (Hepatitis C virus, 72 h) is > 10 µM.

On to “4-((1-(β-D-Ribofuranos-1-yl)-1,2,3-triazol-4-yl)methoxy)-2-phenylquinazoline [Compound 7a]”, for which, in data set [3], the CC50 was ≥ 50 µM. In data set [2], the IC50 is > 10 µM.

`OCCOCn1cc(COc2nc(-c3ccccc3)nc3ccccc23)nn1` [Compound 7b, 2-((4-((2-Phenylquinazolin-4-yloxy)methyl)-1,2,3-triazol-1-yl)methoxy)etanol]: the CC50 at 3 day in data set [1] is ≥ 100 µM. Also, in data set [2] (Hepatitis C virus, 72 h), the IC50 is > 10 µM.

For the molecule `C[C@@]1(O)[C@H](O)[C@@H](CO)O[C@H]1n1ccc(N)nc1=O` [Compound 2CmeCyt, reference compound], in data set [3], the CC50 is > 300 µM. In addition, in data set [2], the IC50 amounted to 1.5 µM.

For `O=c1c2ccccc2ncn1Cc1cn(COCCO)nn1` [Compound 7h, 2-((4-((4-Oxoquinazolin-3-yl)methyl)-1,2,3-triazol-1-yl)methoxy)ethanol], in data set [1], the CC50 at 3 day is ≥ 50 µM. Moreover, in data set [2] (Hepatitis C virus, 72 h), the IC50 is > 10 µM.
